Test results from US20250382332A1, “NOVEL ALPHA-FACTOR BASED PEPTIDES WITH ANTIFUNGAL ACTIVITY” (INVAIO SCIENCES, INC., priority 2024, published 2025).
Peptide text beside a SMILES is read from it.

System: Botrytis cinerea (B05.10)
Test: Resazurin antifungal assay of 180 alpha-factor peptide variants towards Botrytis (Example 2)
Format: cell-based
Details: % inhibition of fungal growth, Botrytis conidia, resazurin; for Inhibition at 10 μM: peptide 10 μM; for Inhibition at 20 μM: peptide 20 μM; for Inhibition at 50 μM: peptide 50 μM; for Inhibition at 100 μM: peptide 100 μM; for Inhibition at 15 μM: peptide 15 μM
Procedure: The antifungal activity of 180 alpha-factor peptide variants towards Botrytis was tested. Experimental design:
Peptides corresponding to SEQ ID NO: 1-180 were chemically synthesized using the solid-phase synthesis method and resuspended in water to a stock solution of 1 mM. The stock solution was aliquoted in cryovials and stored at −80° C.
The Botrytis cinerea culture (B05.10) isolate was acquired from the Centraalbureau voor Schimmelcultures, the Netherlands. The Botrytis fungus was propagated on 0.5% V8 agar plates (200 ml V8 Juice, 3 g CaCO3, 15 g agar, 800-ml millipore water) at 20° C., in a 12 h photoperiod for 21 days.
Fungal conidia were harvested by scraping a Botrytis plate flooded with 1 ml water with 0.1% Tween 80 solution. Conidia were then collected in a 50 ml falcon tube by passing the solution through a 40 micron filter. The solution was then centrifuged at 6000 rpm and the pellet was resuspended in 1 ml of 20% glycerol. The conidia concentration of the resulting solution was counted using a hemocytometer. The stock was diluted to […] using 20% glycerol and frozen in 100 μl aliquots in −80° C. until further use.
Peptides were tested for activity against Botrytis, using the resazurin assay. For this, fungal stock conidia was first diluted to 5000 conidia/well. 50 μl of the spore suspension was added to each well of the sterile 96-well clear bottom testing plate and mixed with 50 μl of peptide solutions to a final concentration of 100, 50, 20, 15 and 10 μM. The plate was incubated for 24 h at 20° C. After 24 h, 10 μl of resazurin dye was added to the microtiter plate and incubated again for […]. Fluorescence was measured at 570/620 nm after 4 h of incubation with resazurin.
Growth inhibition was calculated by subtracting the fluorescence values of conidia only wells from sample wells and depicted as % inhibition of fungal growth. Four technical replicates were used for all treatments.

Row | Compound | Inhibition at 10 μM [%] | Inhibition at 20 μM [%] | Inhibition at 50 μM [%] | Inhibition at 100 μM [%] | Inhibition at 15 μM [%]
1 | CSCC[C@H](NC(=O)[C@@H]1CCCN1C(=O)[C@H](CCC(N)=O)NC(=O)CNC(=O)[C@@H]1CCCN1C(=O)[C@H](CCCCN)NC(=O)[C@H](CC(C)C)NC(=O)[C@H](C)NC(=O)[C@H](CC(C)C)NC(=O)[C@H](Cc1ccc(O)cc1)NC(=O)[C@H](Cc1c[nH]cn1)NC(=O)[C@@H](N)CCCCN)C(=O)N[C@@H](Cc1ccc(O)cc1)C(=O)O [compound 103] (H-KHYLALKPGQPMY-OH; N-terminus and C-terminus assumed) | <90 | <90 | <90 | 98.77 | 
2 | CC[C@H](C)[C@H](NC(=O)[C@H](Cc1ccccc1)NC(=O)[C@H](CS)NC(=O)[C@@H](N)CCCCN)C(=O)N[C@@H](CCC(N)=O)C(=O)N[C@@H](CC(C)C)C(=O)N[C@@H](CCCCN)C(=O)N1CCC[C@H]1C(=O)NCC(=O)N[C@@H](CCC(N)=O)C(=O)N1CCC[C@H]1C(=O)N[C@@H](CCSC)C(=O)N[C@@H](Cc1ccc(O)cc1)C(=O)O [compound 140] (H-KCFIQLKPGQPMY-OH; N-terminus and C-terminus assumed) |  |  | <90 | 90.65 | 
3 | CC[C@H](C)[C@H](NC(=O)[C@H](Cc1c[nH]c2ccccc12)NC(=O)[C@H](Cc1c[nH]cn1)NC(=O)[C@@H](N)CCCCN)C(=O)N[C@H](C(=O)N[C@@H](Cc1ccccc1)C(=O)N[C@@H](CCCCN)C(=O)N1CCC[C@H]1C(=O)NCC(=O)N[C@@H](CCC(N)=O)C(=O)N1CCC[C@H]1C(=O)N[C@@H](CCSC)C(=O)N[C@@H](Cc1ccc(O)cc1)C(=O)O)[C@@H](C)O [compound 11] (H-KHWITFKPGQPMY-OH; N-terminus and C-terminus assumed) | <90 | <90 | 100 | 100 | 
4 | CC[C@H](C)[C@H](NC(=O)[C@H](Cc1c[nH]c2ccccc12)NC(=O)[C@H](Cc1c[nH]cn1)NC(=O)[C@@H]1CCCN1)C(=O)N[C@@H](CO)C(=O)N[C@@H](CC(C)C)C(=O)N[C@@H](CCCCN)C(=O)N[C@@H](CCCCN)C(=O)NCC(=O)N[C@@H](CCC(N)=O)C(=O)N1CCC[C@H]1C(=O)N[C@@H](CCSC)C(=O)N[C@@H](Cc1ccc(O)cc1)C(=O)O [compound 66] (H-PHWISLKKGQPMY-OH; N-terminus and C-terminus assumed) | <90 | 96.17 | 100 | 100 | <90
5 | CSCC[C@H](NC(=O)[C@@H]1CCCN1C(=O)[C@H](CCC(N)=O)NC(=O)CNC(=O)[C@@H]1CCCN1C(=O)[C@H](CCCCN)NC(=O)[C@H](CC(C)C)NC(=O)[C@H](CCCNC(=N)N)NC(=O)[C@H](CC(C)C)NC(=O)[C@@H](NC(=O)[C@H](Cc1c[nH]cn1)NC(=O)[C@@H](N)CCCCN)[C@@H](C)O)C(=O)N[C@@H](Cc1ccc(O)cc1)C(=O)O [compound 83] (H-KHTLRLKPGQPMY-OH; N-terminus and C-terminus assumed) | <90 | 99.92 | 100 | 100 | <90
6 | CSCC[C@H](NC(=O)[C@@H]1CCCN1C(=O)[C@H](CCC(N)=O)NC(=O)CNC(=O)[C@@H]1CCCN1C(=O)[C@H](CCCCN)NC(=O)[C@H](Cc1ccccc1)NC(=O)[C@H](CO)NC(=O)[C@H](CC(C)C)NC(=O)[C@H](Cc1c[nH]c2ccccc12)NC(=O)[C@H](Cc1c[nH]cn1)NC(=O)[C@@H](N)CCCCN)C(=O)N[C@@H](Cc1ccc(O)cc1)C(=O)O [compound 20] (H-KHWLSFKPGQPMY-OH; N-terminus and C-terminus assumed) | <90 | <90 | 100 | 100 | 
7 | CSCC[C@H](NC(=O)[C@@H]1CCCN1C(=O)[C@H](CCC(N)=O)NC(=O)CNC(=O)[C@@H]1CCCN1C(=O)[C@H](CCCCN)NC(=O)[C@H](Cc1ccccc1)NC(=O)[C@H](CCC(=O)O)NC(=O)[C@H](CC(C)C)NC(=O)[C@H](CO)NC(=O)[C@H](Cc1c[nH]cn1)NC(=O)[C@@H](N)CCCCN)C(=O)N[C@@H](Cc1ccc(O)cc1)C(=O)O [compound 165] (H-KHSLEFKPGQPMY-OH; N-terminus and C-terminus assumed) |  |  | <90 | <90 | 
8 | CSCC[C@H](NC(=O)CNC(=O)[C@H](CCC(N)=O)NC(=O)CNC(=O)[C@@H]1CCCN1C(=O)[C@H](CCCCN)NC(=O)[C@H](CC(C)C)NC(=O)[C@H](CO)NC(=O)[C@H](CC(C)C)NC(=O)[C@H](Cc1c[nH]c2ccccc12)NC(=O)[C@H](CO)NC(=O)[C@@H](N)CCCCN)C(=O)N[C@@H](Cc1ccc(O)cc1)C(=O)O [compound 32] (H-KSWLSLKPGQGMY-OH; N-terminus and C-terminus assumed) |  |  | <90 | <90 | 
9 | CSCC[C@H](NC(=O)CNC(=O)[C@H](CO)NC(=O)CNC(=O)[C@@H]1CCCN1C(=O)[C@H](CCCCN)NC(=O)[C@H](CC(C)C)NC(=O)[C@H](CCCNC(=N)N)NC(=O)[C@H](CC(C)C)NC(=O)[C@H](Cc1ccc(O)cc1)NC(=O)[C@H](CCCNC(=N)N)NC(=O)[C@@H](N)Cc1c[nH]c2ccccc12)C(=O)N[C@@H](Cc1ccc(O)cc1)C(=O)O [compound 55] (H-WRYLRLKPGSGMY-OH; N-terminus and C-terminus assumed) | <90 | 99.43 | 100 | 100 | <90
10 | CSCC[C@H](NC(=O)[C@@H]1CCCN1C(=O)[C@H](CCC(N)=O)NC(=O)CNC(=O)[C@H](CCCNC(=N)N)NC(=O)[C@H](CCCCN)NC(=O)[C@H](CC(C)C)NC(=O)[C@@H](NC(=O)[C@H](CC(C)C)NC(=O)[C@H](CC(=O)O)NC(=O)[C@H](CCCNC(=N)N)NC(=O)[C@@H]1CCCN1)[C@@H](C)O)C(=O)N[C@@H](Cc1ccc(O)cc1)C(=O)O [compound 141] (H-PRDLTLKRGQPMY-OH; N-terminus and C-terminus assumed) |  |  | <90 | <90 | 
11 | CC[C@H](C)[C@H](NC(=O)[C@H](CCC(N)=O)NC(=O)[C@@H](NC(=O)[C@H](Cc1c[nH]c2ccccc12)NC(=O)[C@H](Cc1c[nH]cn1)NC(=O)[C@@H]1CCCN1)C(C)C)C(=O)N[C@@H](CCCCN)C(=O)N[C@@H](CC(C)C)C(=O)NCC(=O)N[C@@H](CCC(N)=O)C(=O)N1CCC[C@H]1C(=O)N[C@@H](CCSC)C(=O)N[C@@H](Cc1ccc(O)cc1)C(=O)O [compound 10] (H-PHWVQIKLGQPMY-OH; N-terminus and C-terminus assumed) | <90 | <90 | 100 | 100 | 
12 | CSCC[C@H](NC(=O)[C@@H]1CCCN1C(=O)[C@H](CCC(N)=O)NC(=O)CNC(=O)[C@H](CC(C)C)NC(=O)[C@H](CCCCN)NC(=O)[C@H](Cc1ccccc1)NC(=O)[C@H](CCC(N)=O)NC(=O)CNC(=O)[C@H](Cc1c[nH]c2ccccc12)NC(=O)[C@H](Cc1c[nH]cn1)NC(=O)[C@@H]1CCCN1)C(=O)N[C@@H](Cc1ccc(O)cc1)C(=O)O [compound 43] (H-PHWGQFKLGQPMY-OH; N-terminus and C-terminus assumed) |  |  | <90 | <90 | 
13 | CC[C@H](C)[C@H](NC(=O)[C@H](CCCCN)NC(=O)[C@H](CC(C)C)NC(=O)[C@H](C)NC(=O)[C@H](CC(C)C)NC(=O)[C@H](CC(=O)O)NC(=O)[C@H](Cc1c[nH]cn1)NC(=O)[C@@H](N)CCCCN)C(=O)NCC(=O)N[C@@H](CCC(N)=O)C(=O)N1CCC[C@H]1C(=O)N[C@@H](CCSC)C(=O)N[C@@H](Cc1ccc(O)cc1)C(=O)O [compound 180] (H-KHDLALKIGQPMY-OH; N-terminus and C-terminus assumed) |  |  | <90 | <90 | 
14 | CSCC[C@H](NC(=O)[C@@H]1CCCN1C(=O)[C@H](CCC(N)=O)NC(=O)CNC(=O)[C@@H]1CCCN1C(=O)[C@H](CCCCN)NC(=O)[C@H](CC(C)C)NC(=O)[C@@H](NC(=O)[C@H](CC(C)C)NC(=O)[C@H](Cc1ccc(O)cc1)NC(=O)[C@H](Cc1c[nH]cn1)NC(=O)[C@@H](N)CCCCN)[C@@H](C)O)C(=O)N[C@@H](Cc1ccc(O)cc1)C(=O)O [compound 102] (H-KHYLTLKPGQPMY-OH; N-terminus and C-terminus assumed) | <90 | <90 | <90 | 98.51 | 
